For nine molecules, IC50 results are on record in patent US9464093B2, “Substituted imidazo[4',5':4,5]cyclopenta[1,2-e]pyrrolo[1,2-a]pyrazines and oxazolo[4',5':4,5]cyclopenta[1,2-e]pyrrolo[1,2-a]pyrazines for treating brain cancer” (Mayo Foundation for Medical Education and Research, priority 2012, dated 2016).

Read-outs that look alike come from different tables or passages of the source. Where only a bound is given, the exact number is not on record here.

Data set [1] deals with DU145 prostate cancer cells. In words: Cytotoxicity, MTT method, DU145. As to conditions: read-out: Cytotoxicity (IC50, μM) DU145. In general terms: Tetrazolium assays rely on reduction of a dye to a coloured formazan, in cell work by metabolically active cells.
Method: The cell suspension in the culture medium was plated into each well of 96-well plates (10,000 cells/well/100 μL). After 24 h, testing compounds were added, and then the plates were incubated for an additional 24 h in a humidified atmosphere of 5% CO2 at 37° C. […] The IC50 value was determined by linear interpolation from the growth inhibition curve.
Data set [2] has as its system Raji B cells (Burkitt's lymphoma cells). In words: Cytotoxicity, cell count, Raji (Example 4). As to conditions: read-out: Cytotoxicity (IC50, μM) Raji.
Method: (§1) Raji cells and MB-468 cells were purchased from American Tissue Culture (Manassas, Va.). […] Cells were harvested and counted on the third day in a Coulter Particle Counter (Beckman-Coulter Corp.: Brea, Calif.). IC50 values were calculated using GraphPad Prism 5 (GraphPad Software Inc., La Jolla, Calif.).
Data set [3] concerns MB-468 (triple-negative breast cancer cells). In words: Cytotoxicity, cell count, MB-468 (Example 4). Conditions: read-out: Cytotoxicity (IC50, μM) MB-468.
Method: as §1

`CN1C(=O)N[C@H]2[C@@H]3NC(=O)c4ccc(-c5ccc(N)cc5)n4[C@@H]3C[C@]21O` [APAA, p-aminophenylagelastatin A]: the concentration for half-maximal inhibition (IC50) in data set [1] (Homo sapiens, DU-145, 24 h) is over 10 µM.
As for `CN1C(=O)N[C@H]2[C@@H]3NC(=O)c4ccc(C5CC5)n4[C@@H]3C[C@]21O` [CPAA, cyclopropylagelastatin A], the IC50 in data set [1] (Homo sapiens, DU-145, 24 h) came out at 5 µM; in data set [2] (Homo sapiens, Raji) it was 0.4 µM; in data set [3] it was 1 µM.
On to `CCN1C(=O)N[C@H]2[C@@H]3NC(=O)c4cccn4[C@@H]3C[C@]21O` [DeBEAA, debromoethylagelastatin A], for which the half-maximal inhibitory concentration (IC50) in data set [1] (Homo sapiens, DU-145, 24 h) was over 10 µM.
With `CCN1C(=O)N[C@H]2[C@@H]3NC(=O)c4ccc(Br)n4[C@@H]3C[C@]21O` [EAA, ethylagelastatin A], in data set [1] (Homo sapiens, DU-145, 24 h), the concentration for half-maximal inhibition (IC50) was over 10 µM.
As to `COc1ccc(CN2C(=O)N[C@H]3[C@@H]4NC(=O)c5ccc(Br)n5[C@@H]4C[C@]32O)cc1` [N-PMBAA, N-p-methoxybenzyl agelastatin A], in data set [1] (Homo sapiens, DU-145, 24 h), the IC50 is over 10 µM.
In the case of `CN1C(=O)N[C@H]2[C@@H]3NC(=O)c4ccc(-c5ccccc5)n4[C@@H]3C[C@]21O` [PAA, phenylagelastatin A], the concentration for half-maximal inhibition (IC50) in data set [1] (Homo sapiens, DU-145, 24 h) was found to be 6 µM; in data set [2] (Homo sapiens, Raji), 3.8 µM; in data set [3], 1.5 µM.
In the case of `CNC(=O)N[C@H]1[C@@H]2NC(=O)c3ccc(Br)n3[C@@H]2C[C@H]1O` [UAA, ureaagelastaitin A], the half-inhibitory concentration (IC50) in data set [2] (Homo sapiens, Raji) is over 10 µM; in data set [3], over 10 µM.
In the case of `CN1C(=O)N[C@@H]2[C@H]3NC(=O)c4ccc(Br)n4[C@H]3C[C@@]21O` [ent-AA], the half-inhibitory concentration (IC50) in data set [1] (MTT, 24 h incubation) is over 10 µM.
For the molecule debromoagelastatin A [DeBAA], the IC50 in data set [1] (MTT, 24 h incubation) was over 10 µM; in data set [2] (cells counted on the third day) it was 3.16 µM; in data set [3] (cells counted on the third day) it was 3 µM.

What is called IC50 is the concentration at which inhibition is half-maximal.
